Laboratory results published in patent publication US8575167B2, “Spiro compounds having stearoyl-CoA desaturase action” (Takeda Pharmaceutical Company Limited, priority 2007, dated 2013).

Tests used:
SCD = biological target: T1, SCD (Rattus norvegicus, UniProt P07308); experiment: Measurement of SCD inhibitory activity using microsome (TLC detection system); assay type: biochemical; details: rat liver microsome (20 μg), 15 min, [14C] stearoyl-CoA, test compound (10 mM) diluted to 3/1000 with 3× buffer, 10 μL in 30 μL reaction
T1 construct: an enzyme reaction using rat liver microsome (20 μg) was performed for 15 min; from tissue; host or cells: rat liver microsome fraction
T1 sequence (P07308 1-358): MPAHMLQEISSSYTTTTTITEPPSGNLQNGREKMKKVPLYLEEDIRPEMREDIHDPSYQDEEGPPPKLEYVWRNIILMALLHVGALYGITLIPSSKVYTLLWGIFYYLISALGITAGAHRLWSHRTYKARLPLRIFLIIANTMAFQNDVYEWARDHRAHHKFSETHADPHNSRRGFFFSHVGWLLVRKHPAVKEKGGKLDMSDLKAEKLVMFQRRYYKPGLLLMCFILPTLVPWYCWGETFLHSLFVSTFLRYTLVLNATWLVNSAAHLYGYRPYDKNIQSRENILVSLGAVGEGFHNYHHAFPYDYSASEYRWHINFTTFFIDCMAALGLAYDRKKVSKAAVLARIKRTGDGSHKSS
Description: (Test Method: Measurement of SCD Inhibitory Activity Using Microsome (TLC Detection System))
A test compound (10 mM) diluted with DMSO in advance was secondarily diluted to 3/1000 with 3× buffer (300 mmol/L NaH2PO4 [pH 7.4], 450 mM KCl, 30 mM NaF, 9 mM MgCl2, 4.5 mM glutathione [reduced form], 0.3% BSA [fatty acid free, SIGMA]). The test compound (10 μL) diluted with the assay buffer was dispensed to a PP 96-deep well block, and a microsome fraction (10 μL) diluted with a microsome buffer was added thereto. The enzyme reaction was started by the addition of 10 μL of [^14C] stearoyl-CoA (American Radiolabeled Chemicals [ARC], Inc.) diluted to 10 μCi/mL with 9 mmol/L NADH. For evaluation of the compound, an enzyme reaction using rat liver microsome (20 μg) was performed for 15 min. The reaction was quenched by the addition of 10 μL of 2.5N NaOH, a plate seal was applied, and the reaction mixture was incubated overnight in a dry heater set to 65° C. to allow saponification. Solvent extraction of fatty acid was based on the Bligh&Dyer method (1). Formic acid:methanol:chloroform (1:6:3) (200 μL) was added, the state of single layer was maintained, the mixture was sufficiently stirred, and pure water (120 μL) was added to allow separation into two layers. The lower chloroform layer (10 μL) was spotted on reversed-phase TLC plate (RP-18, 1154230001, Merck Japan, Ltd.) and developed with acetonitrile:pure water:acetic:acid (95:4.5:0.5). The TLC plate was dried and transferred onto an Imaging Plate (Fuji Photo Film Co., Ltd.) for not less than 5 hr. For detection, BAS-5000 (Fuji Photo Film Co., Ltd) was used and the obtained spot images were converted to numerical values using Multi Gauge Ver2.3 (Fuji Photo Film Co., Ltd), based on which the SCD activity inhibitory rate (%) was determined.

[1] = tested on: Diet-Induced Obesity (DIO) Model Mouse; experiment: Antiobesity action on diet-induced obesity (DIO) model mouse: liver unsaturation index number (C18:1/C18:0); assay type: in vivo; details: liver C18:1/C18:0 ratio, 0.1 mg/kg body weight by gavage for 4 weeks, n=7
Excerpt: Male C57BL/6J mice (6-week-old) were purchased from CLEA Japan, Inc. The mice were divided into two groups, and a high fat diet (Research Diets, Inc.; solid D12451) was given to one group and a general feed for rearing and breeding (CLEA Japan, Inc.; solid CE-2) was given to the other group.
Each group was reared for 4 months under full feeding, and divided into a diet-induced obesity model group and a general feed group using the body weight and plasma triglyceride concentration as indices. […] of a 0.5% methylcellulose suspension of the compound of Example 15 (0.1 mg/kg body weight) was administered to each of the diet-induced obesity model group and the general feed group by gavage for 4 weeks (each group n=7). […] The body weight of each group was measured during the dosing period. […]
The liver total lipid sample extracted by the above-mentioned procedure was labeled using an ester type fatty acid labeling reagent (YMC). The labeled sample was dissolved in methanol (5 μL) and analyzed using YMC-Pack FA (6.0Φ×250 mm), CH3CN:H2O:0.1% TFA (850:150:2) as a mobile phase at a flow rate of 1.2 mL/min. The peak area of each fatty acid in the sample was determined as a C18:1/C18:0 ratio from the peak area of each standard product and used as an unsaturation index number which is an index of the enzyme activity of SCD. […]

inhibition at 10 µM (SCD; read-out: SCD activity inhibitory rate (%)) | SCD activity inhibitory rate (%) (SCD) | SMILES | unsaturation index number (mean ± SD) ([1]; diet-induced obesity model group) | unsaturation index number (mean ± SD) ([1]; general feed group)
100% | – | Cc1nsc(-c2ccc(N3CCC4(C3)OCc3ccccc34)nn2)n1 (stereo not shown) [Example 15, 1′-[6-(3-methyl-1,2,4-thiadiazol-5-yl)pyridazin-3-yl]-3H-spiro[2-benzofuran-1,3′-pyrrolidine]] | 43.886 ± 2.0318 | 29.017 ± 1.2254
– | 100% | Cc1noc(-c2ccc(N3CCC4(COc5ccccc54)C3)nn2)n1 (stereo not shown) [Example 179 (short retention time), 1′-[6-(3-methyl-1,2,4-oxadiazol-5-yl)pyridazin-3-yl]spiro[1-benzofuran-3,3′-pyrrolidine]] | – | –
